Results taken from US9938273B2 (Plexxikon Inc., priority 2015, dated 2018).

Key:
[1] = test system: MOLM-14 D835Y cells, FLT3 ITD and FLT3 D835Y; assay: Cell proliferation assay (CellTiter-Glo), MOLM-14 D835Y; format: cell-based; conditions: Homo sapiens, 72 h, 3d-Growth, GMean
How it was run: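 MOLM-14 AML cells (endogenous FLT3 ITD, AC220-selected D835Y or F691L variants) or murine Ba/F3 expressing full-length FLT3 ITD/D835Y, without IL-3 for FLT3 dependence, 1×10^4 cells/well. Eight-point 1:3 series from 1 μM final, 0.2% DMSO, 3 days at 37 °C. CellTiter-Glo luminescence (ATP) gave IC50.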

FLT3-ITD = target: T1, FLT3-ITD (Homo sapiens, UniProt P36888); assay: AlphaScreen kinase assay with recombinant enzyme, FLT3-ITD; format: biochemical; conditions: 8pt; read-out: FLT3_ITD 8pt: IC50
T1 sequence (P36888 1-993): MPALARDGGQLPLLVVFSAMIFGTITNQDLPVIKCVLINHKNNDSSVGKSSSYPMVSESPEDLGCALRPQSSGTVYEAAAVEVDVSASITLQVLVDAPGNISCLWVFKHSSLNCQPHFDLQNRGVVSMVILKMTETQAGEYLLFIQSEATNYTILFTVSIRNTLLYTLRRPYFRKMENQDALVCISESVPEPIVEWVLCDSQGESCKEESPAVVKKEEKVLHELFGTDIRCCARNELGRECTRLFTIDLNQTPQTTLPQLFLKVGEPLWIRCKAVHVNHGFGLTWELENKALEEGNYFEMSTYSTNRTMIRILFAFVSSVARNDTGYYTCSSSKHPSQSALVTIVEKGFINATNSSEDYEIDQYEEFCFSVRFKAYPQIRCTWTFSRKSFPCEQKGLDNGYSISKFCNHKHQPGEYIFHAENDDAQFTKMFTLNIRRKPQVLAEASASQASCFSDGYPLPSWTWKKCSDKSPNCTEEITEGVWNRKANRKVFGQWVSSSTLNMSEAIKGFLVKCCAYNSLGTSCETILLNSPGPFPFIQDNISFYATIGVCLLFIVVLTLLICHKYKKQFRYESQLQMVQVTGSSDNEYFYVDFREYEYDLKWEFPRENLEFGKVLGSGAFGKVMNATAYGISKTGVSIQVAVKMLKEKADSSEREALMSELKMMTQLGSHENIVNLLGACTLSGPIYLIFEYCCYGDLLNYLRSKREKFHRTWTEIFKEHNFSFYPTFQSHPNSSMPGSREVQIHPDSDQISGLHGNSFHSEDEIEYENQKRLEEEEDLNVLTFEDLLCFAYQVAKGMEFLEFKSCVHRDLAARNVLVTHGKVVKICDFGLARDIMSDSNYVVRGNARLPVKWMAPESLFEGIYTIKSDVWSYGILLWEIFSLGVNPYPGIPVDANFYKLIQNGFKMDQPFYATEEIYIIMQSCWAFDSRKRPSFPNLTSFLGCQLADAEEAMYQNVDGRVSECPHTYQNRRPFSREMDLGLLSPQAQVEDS
How it was run: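 Compounds in DMSO added to enzyme plus biotin-poly(Glu4-Tyr) (30 nM) in assay buffer, then ATP added. Streptavidin donor beads added (20 min, RT), then PY20 acceptor beads (60 min, RT), both at 10 μg/mL final in stop/detection buffer. IC50 conditions: 10 μM FLT3-D835Y/ITD, 100 μM c-KIT.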

IC50 [1] | IC50 (FLT3-ITD) | Structure (SMILES)
0.0001 to 10 µM | 0.0001 to 10 µM | N#CC1CCN(C(=O)c2cccc(-c3cnc4[nH]c(C5=CCOCC5)c(Cl)c4c3)n2)C1 (centres unmarked) [Compound P-0142, 1-[6-[3-chloro-2-(3,6-dihydro-2H-pyran-4-yl)-1H-pyrrolo[2,3-b]pyridin-5-yl]pyridine-2-carbonyl]pyrrolidine-3-carbonitrile]
0.0001 to 10 µM | 0.0001 to 10 µM | N#CCCNC(=O)c1cccc(-c2cnc3[nH]c(-c4ccccc4)c(I)c3c2)n1 [Compound P-0143, N-(2-cyanoethyl)-6-(3-iodo-2-phenyl-1H-pyrrolo[2,3-b]pyridin-5-yl)pyridine-2-carboxamide]
0.0001 to 10 µM | 0.0001 to 10 µM | CC(C)(C#N)CNC(=O)c1cccc(-c2cnc3[nH]c(-c4ccc(F)cc4)cc3c2)n1 [Compound P-0144, N-(2-cyano-2-methyl-propyl)-6-[2-(4-fluorophenyl)-1H-pyrrolo[2,3-b]pyridin-5-yl]pyridine-2-carboxamide]
0.0001 to 10 µM | 0.0001 to 10 µM | CC(C)(C#N)NC(=O)c1cccc(-c2cnc3[nH]c(-c4ccc(F)cc4)cc3c2)n1 [Compound P-0145, N-(1-cyano-1-methyl-ethyl)-6-[2-(4-fluorophenyl)-1H-pyrrolo[2,3-b]pyridin-5-yl]pyridine-2-carboxamide]
0.0001 to 10 µM | 0.0001 to 10 µM | N#CC1(NC(=O)c2cccc(-c3cnc4[nH]c(-c5ccccc5)cc4c3)n2)CCCC1 [Compound P-0146, N-(1-cyanocyclopentyl)-6-(2-phenyl-1H-pyrrolo[2,3-b]pyridin-5-yl)pyridine-2-carboxamide]
0.0001 to 10 µM | 0.0001 to 10 µM | N#CCCNC(=O)c1cccc(-c2cnc3[nH]c(-c4ccccc4)c(Br)c3c2)n1 [Compound P-0147, 6-(3-bromo-2-phenyl-1H-pyrrolo[2,3-b]pyridin-5-yl)-N-(2-cyanoethyl)pyridine-2-carboxamide]
0.0001 to 10 µM | 0.0001 to 10 µM | N#CC1(CNC(=O)c2cccc(-c3cnc4[nH]c(-c5ccccc5)c(Cl)c4c3)n2)CC1 [Compound P-0148, 6-(3-chloro-2-phenyl-1H-pyrrolo[2,3-b]pyridin-5-yl)-N-[(1-cyanocyclopropyl)methyl]pyridine-2-carboxamide]
0.0001 to 10 µM | 0.0001 to 10 µM | O=C(NC1(C(F)(F)F)CCCC1)c1cccc(-c2cnc3[nH]c(-c4ccccc4)cc3c2)n1 [Compound P-0149, 6-(2-phenyl1H-pyrrolo[2,3-b]pyridin-5-yl)-N-[1-(trifluoromethyl)cyclopentyl]pyridine-2-carboxamide]
0.0001 to 10 µM | 0.0001 to 10 µM | CC(C)(O)CNC(=O)c1cccc(-c2cnc3[nH]c(-c4ccccc4)cc3c2)n1 [Compound P-0150, N-(2-hydroxy-2-methyl-propyl)-6-(2-phenyl-1H-pyrrolo[2,3-b]pyridin-5-yl)pyridine-2-carboxamide]
0.0001 to 10 µM | 0.0001 to 10 µM | O=C(NC1(CO)CC1)c1cccc(-c2cnc3[nH]c(-c4ccccc4)cc3c2)n1 [Compound P-0151, N-[1-(hydroxymethyl)cyclopropyl]-6-(2-phenyl-1H-pyrrolo[2,3-b]pyridin-5-yl)pyridine-2-carboxamide]
0.0001 to 10 µM | 0.0001 to 10 µM | CC(C)(C#N)CNC(=O)c1cccc(-c2cnc3[nH]c(-c4ccnc(C5CC5)c4)cc3c2)n1 [Compound P-0152, N-(2-cyano-2-methyl-propyl)-6-[2-(2-cyclopropyl-4-pyridyl)-1H-pyrrolo[2,3-b]pyridin-5-yl]pyridine-2-carboxamide]
0.0001 to 10 µM | 0.0001 to 10 µM | CC(C)(C#N)CNC(=O)c1cccc(-c2cnc3[nH]c(-c4cnn(C(F)F)c4)cc3c2)n1 [Compound P-0153, N-(2-cyano-2-methyl-propyl)-6-[2-[1-(difluoromethyl)pyrazol-4-yl]-1H-pyrrolo[2,3-b]pyridin-5-yl]pyridine-2-carboxamide]
0.0001 to 10 µM | 0.0001 to 10 µM | COc1cc(-c2cc3cc(-c4cccc(C(=O)NCC(C)(C)C#N)n4)cnc3[nH]2)ccn1 [Compound P-0154, N-(2-cyano-2-methyl-propyl)-6-[2-(2-methoxy-4-pyridyl)-1H-pyrrolo[2,3-b]pyridin-5-yl]pyridine-2-carboxamide]
0.0001 to 10 µM | 0.0001 to 10 µM | Cn1cc(-c2cc3cc(-c4cccc(C(=O)NCC(C)(C)C#N)n4)cnc3[nH]2)ccc1=O [Compound P-0155, N-(2-cyano-2-methyl-propyl)-6-[2-(1-methyl-6-oxo-3-pyridyl)-1H-pyrrolo[2,3-b]pyridin-5-yl]pyridine-2-carboxamide]
0.0001 to 10 µM | 0.0001 to 10 µM | O=C(NC1(C(F)(F)F)CC1)c1cccc(-c2cnc3[nH]c(-c4ccccc4)cc3c2)n1 [Compound P-0156, 6-(2-phenyl-1H-pyrrolo[2,3-b]pyridin-5-yl)-N-[1-(trifluoromethyl)cyclopropyl]pyridine-2-carboxamide]
0.0001 to 10 µM | 0.0001 to 10 µM | CC(C)(C#N)CNC(=O)c1cccc(-c2cnc3[nH]c(C4=CCC(F)(F)CC4)cc3c2)n1 [Compound P-0157, N-(2-cyano-2-methyl-propyl)-6-[2-(4,4-difluorocyclohexen-1-yl)-1H-pyrrolo[2,3-b]pyridin-5-yl]pyridine-2-carboxamide]
0.0001 to 10 µM | 0.0001 to 10 µM | CC(C)(C#N)CNC(=O)c1cccc(-c2cnc3[nH]c(C4=CCSCC4)cc3c2)n1 [Compound P-0159, N-(2-cyano-2-methyl-propyl)-6-[2-(3,6-dihydro-2H-thiopyran-4-yl)-1H-pyrrolo[2,3-b]pyridin-5-yl]pyridine-2-carboxamide]
0.0001 to 10 µM | 0.0001 to 10 µM | CC(C)(C#N)CNC(=O)c1cccc(-c2cnc3[nH]c(C4=CCS(=O)(=O)CC4)cc3c2)n1 [Compound P-0160, N-(2-cyano-2-methyl-propyl)-6-[2-(1,1-dioxo-3,6-dihydro-2H-thiopyran-4-yl)-1H-pyrrolo[2,3-b]pyridin-5-yl]pyridine-2-carboxamide]
0.0001 to 10 µM | 0.0001 to 10 µM | CC(C)(C#N)CNC(=O)c1cccc(-c2cnc3[nH]c(C4=CC[S+]([O-])CC4)cc3c2)n1 (centres unmarked) [Compound P-0161, N-(2-cyano-2-methyl-propyl)-6-[2-(1-oxo-3,6-dihydro-2H-thiopyran-4-yl)-1H-pyrrolo[2,3-b]pyridin-5-yl]pyridine-2-carboxamide]
0.0001 to 10 µM | 0.0001 to 10 µM | CC(C)(C#N)CNC(=O)c1cccc(-c2cnc3[nH]c(C4=CCN(C(=O)C5CC5)CC4)cc3c2)n1 [Compound P-0162, N-(2-cyano-2-methyl-propyl)-6-[2-[1-(cyclopropanecarbonyl)-3,6-dihydro-2H-pyridin-4-yl]-1H-pyrrolo[2,3-b]pyridin-5-yl]pyridine-2-carboxamide]
0.0001 to 10 µM | 0.0001 to 10 µM | Cc1cc(-c2cc3cc(-c4cccc(C(=O)NC(C)(C)C#N)n4)cnc3[nH]2)cnn1 [Compound P-0163, N-(1-cyano-1-methyl-ethyl)-6-[2-(6-methylpyridazin-4-yl)-1H-pyrrolo[2,3-b]pyridin-5-yl]pyridine-2-carboxamide]
0.0001 to 10 µM | 0.0001 to 10 µM | CC(C)(C#N)NC(=O)c1cccc(-c2cnc3[nH]c(-c4cnn(C(F)F)c4)cc3c2)n1 [Compound P-0164, N-(2-cyanopropan-2-yl)-6-(2-(1-(difluoromethyl)-1H-pyrazol-4-yl)-1H-pyrrolo[2,3-b]pyridin-5-yl)picolinamide]
